Results from patent US20210386705A1, “APPLICATION OF CHIGLITAZAR AND RELATED COMPOUNDS THEREOF” (SHENZHEN CHIPSCREEN BIOSCIENCES CO., LTD., priority 2018, published 2021).
Where “and” joins values, the source holds several entries; their conditions need not be identical. Identical values can stand only once.

Key:
Format in all cases: cell-based, human
[1] = tested on: monocytic cell line THP-1; assay: MCP-1-induced chemotaxis of THP-1 cells (Transwell); settings: MCP-1 10 ng/mL, compound 3 μmol/L; for Cell concentration in lower chamber, Mean value / Cell concentration in lower chamber, single replicates: 24 hours pretreatment, 4 hours migration; for Migration rate: solvent control + MCP-1 = 100
Excerpt: In an in vitro model, migration of the monocytic cell line THP-1 induced by a certain concentration of chemokines (such as monocyte chemotactic protein 1, MCP-1), and accordingly such in vivo process was mimicked. Transwell technology, according to the manufacturer's instructions from Corning Inc., is considered that Traswell is a kind of a polycarbonate membrane filter as well as a permeable holder. The polycarbonate membrane divides a culture chamber into upper and lower ones, where the components of the culture medium in the lower chamber can affect the growth, differentiation and movement of the cells in upper chamber. Finally, the cell migration ability can be reflected by staining and counting the cells in the lower chamber.
When cultured to the log phase stage, THP-1 cells were resuspended, adjusted the concentration, and seeded in 24-well plates, followed by being pretreated with the culture media containing the compound to be tested (sodium chiglitazar) or the reference compound GFT505, pioglitazone, or PPARγ single agonist rosiglitazone (all purchased from Selleck) for 24 hours. Transwells were used according to the manufacturer's instructions. The culture media containing chemokine MCP-1 were added to the lower chamber (i.e., the bottom of the 24-well plates), and the cell suspension was added to the upper chamber and cultured for 4 hours. Later, the cells cultured on the “ceiling” surface of the polycarbonate membrane were fixed and stained with crystal violet solution (FIG. 6), and then the number of cells in the lower chamber was counted (Table 3).

[2] = tested on: α-smooth muscle actin (α-SMA); assay: TGF-β1-activated hepatic stellate cells, α-SMA gene expression (qPCR); settings: TGF-β1 stimulation, 24 hours; FIG. 4
Experimental: Human primary hepatic stellate cells were seeded into 6-well plates with complete growth media (Stellate Cell Medium) for 24 hours, and then the culture media were replaced by fresh media (free of serum and growth factors) containing TGF-β1 and the compound to be tested (sodium chiglitazar) or the reference compound PPARγ/α dual agonist pioglitazone or PPARα/δ dual agonist GFT505 (both purchased from Selleck), and the cells were cultured for 24 hours. The total RNAs of the samples were extracted, and reverse transcription reaction was performed. Thereafter, a conventional PCR amplification kit (FastStart Universal SYBR@ Green Master (ROX), Roche) was used for further detection, where the PCR primers were designed with reference to the NCBI standard mRNA sequence of the target genes (Table 2). PCR reaction and detection were carried out on the ABI StepOnePlus real-time quantitative PCR instrument. By calculating the relative amount of transcripts was calculate by “Delta-Delta CT method” (Livak et al. Methods 2001), and using ACTB as the housekeeping gene for normalization and the average data of untreated human hepatic stellate cells as a reference control, the relative change folds of gene expression were obtained (FIG. 4).

THP-1 cells = assay: Inflammatory factor gene expression (MCP-1, TNFα) in PMA-activated THP-1 cells (qPCR); settings: 6 hours, FIG. 5
Experimental: Human acute monocytic leukemia mononuclear cell line (THP-1) cells were activated by a certain concentration of phorbol esters (Phorbol-12-myristate-13-acetate, PMA) and differentiated into macrophages. Through this cell model, the activating effects of sodium chiglitazar and other compounds on the expression of THP-1 related inflammatory factors were detected.
THP-1 cells were seeded into 6-well plates with complete growth media for 24 hours, and then the culture media were replaced by fresh media containing PMA and the compound to be tested (sodium chiglitazar) or the reference compound GFT505 (PPARα/δ dual agonist), and the cells were cultured for 6 hours. The total RNAs of the samples were extracted, and cDNA templates were synthesized by reverse transcription reaction (Transcriptor First Strand cDNA Synthesis Kit, Roche). Thereafter, a conventional PCR amplification kit (FastStart Universal SYBR@ Green Master (ROX), Roche) was used for semi-quantitative gene expression detection on the ABI StepOnePlus real-time quantitative PCR instrument.
The relative expression change of the target genes was obtained by using the internal reference β-actin gene (ACTB) as the standard for normalization, compared with the untreated cell samples, and the relative expression change folds were calculated (FIG. 5).

SMILES | Cell concentration in lower chamber, Mean value [1] [cells/ml] | Cell concentration in lower chamber, single replicates [1] | Migration rate [1] [%] | Effect on expression of α-smooth muscle actin [2] | Inhibition of phorbol esters-mediated activation of monocyte and related gene expression (THP-1 cells)
CSc1ccc(C(=O)/C=C/c2cc(C)c(OC(C)(C)C(=O)O)c(C)c2)cc1 [GFT505] | 28175 | 28443 cells/ml and 28511 cells/ml and 27572 cells/ml | 102.55 | a certain inhibitory effect | significantly inhibit
CCc1ccc(CCOc2ccc(CC3SC(=O)NC3=O)cc2)nc1 (stereo not drawn) [pioglitazone] | 17514 | 17529 cells/ml and 17416 cells/ml and 17597 cells/ml | 61.80 | no effect | –
